Toxic doses and inconclusive results are not listed. Rule as the data show it: active = T/C of 150% or more; inactive = T/C below 125%.
Tested on: L1210 leukemia ip in BDF1 mice, survival T/C
Test: NCI In Vivo Anticancer Drug Screen. Data for tumor model L1210 Leukemia (intraperitoneal) in B6D2F1 (BDF1) mice
Details: endpoint: mean survival time, higher = longer survival
Summary of the method: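 Value reflects the ratio of survival in compound-treated mice to survival in vehicle-treated controls, with both groups carrying the same transplanted tumor.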

[1] = dose: 100.0 mg/kg/injection, schedule: Q01DX001 (ip), vehicle: saline with Tween-80
[2] = dose: 200.0 mg/kg/injection, schedule: Q01DX001 (ip), vehicle: saline with Tween-80
[3] = dose: 400.0 mg/kg/injection, schedule: Q01DX001 (ip), vehicle: saline with Tween-80
[4] = dose: 100.0 mg/kg/injection, schedule: Q04DX003 (ip), vehicle: Klucel (hydroxypropylcellulose) (HPC)
[5] = dose: 100.0 mg/kg/injection, schedule: Q01DX009 (ip), vehicle: saline with Tween-80
[6] = dose: 100.0 mg/kg/injection, schedule: Q04DX003 (ip), vehicle: saline with Tween-80
[7] = dose: 200.0 mg/kg/injection, schedule: Q01DX009 (ip), vehicle: saline with Tween-80
[8] = dose: 200.0 mg/kg/injection, schedule: Q04DX003 (ip), vehicle: saline with Tween-80
[9] = dose: 400.0 mg/kg/injection, schedule: Q01DX009 (ip), vehicle: saline with Tween-80
[10] = dose: 400.0 mg/kg/injection, schedule: Q04DX003 (ip), vehicle: saline with Tween-80
[11] = dose: 100.0 mg/kg/injection, schedule: Q01DX001 (ip), vehicle: saline
[12] = dose: 200.0 mg/kg/injection, schedule: Q01DX001 (ip), vehicle: saline
[13] = dose: 100.0 mg/kg/injection, schedule: Q01DX001 (ip), vehicle: Klucel (hydroxypropylcellulose) (HPC)
[14] = dose: 200.0 mg/kg/injection, schedule: Q01DX001 (ip), vehicle: Klucel (hydroxypropylcellulose) (HPC)
[15] = dose: 75.0 mg/kg/injection, schedule: Q01DX001 (ip), vehicle: saline
[16] = dose: 150.0 mg/kg/injection, schedule: Q01DX001 (ip), vehicle: saline
[17] = dose: 300.0 mg/kg/injection, schedule: Q01DX001 (ip), vehicle: saline
[18] = dose: 400.0 mg/kg/injection, schedule: Q01DX001 (ip), vehicle: Klucel (hydroxypropylcellulose) (HPC)
[19] = dose: 100.0 mg/kg/injection, schedule: Q01DX001 (ip), vehicle: carboxymethylcellulose (CMC)
[20] = dose: 200.0 mg/kg/injection, schedule: Q01DX001 (ip), vehicle: carboxymethylcellulose (CMC)
[21] = dose: 400.0 mg/kg/injection, schedule: Q01DX001 (ip), vehicle: carboxymethylcellulose (CMC)

Measured: T/C

CC1=C(C)C23OCC(CO2)CC3=C(C)C1=O
inactive: [1] 93 % of control | [2] 122 % of control | [3] 104 % of control

Cc1cc(C)c(S(=O)(=O)c2c(C)cc(C)cc2C)c(C)c1
inactive: dose: 25.0 mg/kg/injection, schedule: Q04DX003 (ip), vehicle: Klucel (hydroxypropylcellulose) (HPC) 100 % of control | dose: 50.0 mg/kg/injection, schedule: Q04DX003 (ip), vehicle: Klucel (hydroxypropylcellulose) (HPC) 93 % of control | [4] 88 % of control

NS(=O)Oc1ccc(Nc2ncnc3nc[nH]c23)cc1 (configuration not stated)
inactive: [5] 97 % of control | [6] 98 % of control | [7] 95 % of control | [8] 102 % of control | [9] 104 % of control | [10] 98 % of control

O=[N+]([O-])c1ccc(-c2ccc([N+](=O)[O-])c(-c3ccccc3)c2)cc1
inactive: [6] 93 % of control | [8] 88 % of control

CC(=O)N1CCn2nccc21
inactive: dose: 100.0 mg/kg/injection, schedule: Q01DX009 (ip), vehicle: water 103 % of control | dose: 100.0 mg/kg/injection, schedule: Q04DX003 (ip), vehicle: water 97 % of control | dose: 200.0 mg/kg/injection, schedule: Q01DX009 (ip), vehicle: water 112 % of control | dose: 200.0 mg/kg/injection, schedule: Q04DX003 (ip), vehicle: water 106 % of control | dose: 240.0 mg/kg/injection, schedule: Q01DX009 (ip), vehicle: saline 109 % of control | dose: 240.0 mg/kg/injection, schedule: Q01DX009 (ip), vehicle: water 110 % of control | dose: 400.0 mg/kg/injection, schedule: Q01DX009 (ip), vehicle: saline 122 % of control | dose: 400.0 mg/kg/injection, schedule: Q04DX003 (ip), vehicle: water 106 % of control | dose: 666.0 mg/kg/injection, schedule: Q01DX009 (ip), vehicle: saline 122 % of control | dose: 666.0 mg/kg/injection, schedule: Q01DX009 (ip), vehicle: water 90 % of control

N#Cc1ccc(S(=O)(=O)N=C(N)N)cc1
inactive: [11] 100 % of control | [12] 91 % of control | dose: 400.0 mg/kg/injection, schedule: Q01DX001 (ip), vehicle: saline 90 % of control

CN(C)C(=O)Nc1ccc2c(c1)OCO2
inactive: dose: 75.0 mg/kg/injection, schedule: Q01DX009 (ip), vehicle: Klucel (hydroxypropylcellulose) (HPC) 107 % of control | [13] 111 % of control | dose: 150.0 mg/kg/injection, schedule: Q01DX009 (ip), vehicle: Klucel (hydroxypropylcellulose) (HPC) 110 % of control | [14] 104 % of control | dose: 300.0 mg/kg/injection, schedule: Q01DX009 (ip), vehicle: Klucel (hydroxypropylcellulose) (HPC) 102 % of control

CCOC(=O)C(CO)NS(=O)(=O)c1ccc(C)cc1 (configuration not stated)
inactive: [15] 103 % of control | dose: 75.0 mg/kg/injection, schedule: Q04DX003 (ip), vehicle: saline 102 % of control | [16] 106 % of control | dose: 150.0 mg/kg/injection, schedule: Q04DX003 (ip), vehicle: saline 103 % of control | [17] 103 % of control | dose: 300.0 mg/kg/injection, schedule: Q04DX003 (ip), vehicle: saline 97 % of control

CCCCc1c(N)nc(N)nc1-c1ccccc1
inactive: [13] 112 % of control | [14] 105 % of control | [18] 94 % of control

CCC(CO)(CO)C(=[N-])c1ccccc1O.CCC(CO)(CO)N=Cc1ccccc1O.[Co]
inactive: dose: 50.0 mg/kg/injection, schedule: Q01DX001 (ip), vehicle: saline 98 % of control | [11] 94 % of control | [12] 94 % of control

O=C(O)C(Cl)C(Cl)c1ccccc1 (configuration not stated)
inactive: [15] 98 % of control | [16] 98 % of control | [17] 101 % of control

CCOc1ccn(CC(=O)c2ccc(Cl)s2)c(=O)n1
inactive: [5] 93 % of control | [6] 100 % of control | [7] 90 % of control | [8] 100 % of control | [9] 86 % of control | [10] 101 % of control

COc1cccc2c1N=c1c(Cl)c3c(c(Cl)c1O2)=Nc1c(OC)cccc1O3
inactive: [4] 106 % of control | dose: 200.0 mg/kg/injection, schedule: Q04DX003 (ip), vehicle: Klucel (hydroxypropylcellulose) (HPC) 102 % of control | dose: 400.0 mg/kg/injection, schedule: Q04DX003 (ip), vehicle: Klucel (hydroxypropylcellulose) (HPC) 113 % of control

COc1ccc(C(=C2CCCCC2)c2ccc(OC)cc2)cc1
inactive: [1] 95 % of control | [2] 94 % of control | [3] 88 % of control

CCCCC(=O)N/N=C\c1cccc(I)c1
inactive: [19] 87 % of control | [20] 93 % of control | [21] 87 % of control

NC(=O)C(c1ccccc1)N1CCOCC1 (configuration not stated)
inactive: dose: 50.0 mg/kg/injection, schedule: Q04DX003 (ip), vehicle: saline 106 % of control | dose: 100.0 mg/kg/injection, schedule: Q04DX003 (ip), vehicle: saline 102 % of control | dose: 200.0 mg/kg/injection, schedule: Q04DX003 (ip), vehicle: saline 104 % of control | dose: 400.0 mg/kg/injection, schedule: Q04DX003 (ip), vehicle: saline 102 % of control

O=C(NCCO)C1OCOC2C(CO)OCOC12 (configuration not stated)
inactive: dose: 12.5 mg/kg/injection, schedule: Q04DX002 (ip), vehicle: saline 101 % of control | dose: 25.0 mg/kg/injection, schedule: Q04DX002 (ip), vehicle: saline 101 % of control | dose: 50.0 mg/kg/injection, schedule: Q04DX002 (ip), vehicle: saline 101 % of control | dose: 100.0 mg/kg/injection, schedule: Q04DX002 (ip), vehicle: saline 93 % of control

CCC(NC(=O)OCc1ccccc1)C(=O)O (configuration not stated)
inactive: [6] 98 % of control | [8] 93 % of control | [10] 97 % of control

O=[N+]([O-])c1ccc(C2ON2C2CCCCC2)cc1 (configuration not stated)
inactive: [19] 87 % of control | [21] 108 % of control

COc1ccc(/C=N\NC(=O)CCCCC(=O)N/N=C\c2ccc(OC)cc2)cc1
inactive: [13] 106 % of control | [14] 98 % of control | [18] 91 % of control

CNc1cc(N2CCCC2)ccn1
inactive: dose: 5.0 mg/kg/injection, schedule: Q01DX001 (ip), vehicle: saline 104 % of control | dose: 10.0 mg/kg/injection, schedule: Q01DX001 (ip), vehicle: saline 110 % of control

Cc1ccc(Nc2nc(N)nc(N)c2N=O)cc1Cl
inactive: dose: 100.0 mg/kg/injection, schedule: Q01DX Z (ip), vehicle: methylcellulose (MC) 104 % of control | dose: 200.0 mg/kg/injection, schedule: Q01DX Z (ip), vehicle: methylcellulose (MC) 89 % of control

CCSC(SCC)C(SCC)C(OC(=O)c1ccccc1)C(OC(=O)c1ccccc1)C(COC(=O)c1ccccc1)OC(=O)c1ccccc1 (configuration not stated)
inactive: [19] 114 % of control | [20] 112 % of control | [21] 93 % of control

c1ccc(CNCCCNCc2ccccn2)nc1
inactive: dose: 50.0 mg/kg/injection, schedule: Q01DX009 (ip), vehicle: saline with Tween-80 93 % of control | [5] 98 % of control
